Experiment [1] deals with GBM cells (LN229, U138, G55, U251, T98, LN18). Description: Cell viability at 1 mM vs 2 mM OKN. The experiment is classed as cell-based, human.
A further experiment has as its system MPG. Description: ELISA protein level in human GBM cell lysates. The experiment is classed as cell-based. The procedure: ELISA for HIF-1a, MPG and MGMT. Protein expressions were assessed in all six glioma cell lines for all four groups of treatment (cell alone, cells with TMZ, cells with OKN, cells with combined OKN and TMZ). Cells were lysed before assaying. In brief, cells were washed by cold PBS gently, and then detached with trypsin, and collected by centrifugation at 1,000×g for 5 minutes. Then, cells were washed three times in cold PBS, then suspended in fresh lysis buffer. Lysates were centrifuged at 1,500×g for 10 minutes at 2-8° C. to remove cellular debris.
The assay is based on the sandwich ELISA principle. Each well of the supplied microtiter plate has been pre-coated with a target specific capture antibody. Standards or samples are added to the wells and the target antigen binds to the capture antibody. Unbound Standard or sample is washed away. A biotin-conjugated detection antibody is then added which binds to the captured antigen. Unbound detection antibody is washed away. An Avidin-Horseradish Peroxidase (HRP) conjugate is then added which binds to the biotin. Unbound Avidin-HRP conjugate is washed away. A TMB substrate is then added which reacts with the HRP enzyme resulting in color development. A sulfuric acid stop solution is added to terminate color development reaction and then the optical density (OD) of the well is measured at a wavelength of 450 nm±2 nm. The OD of an unknown sample can then be compared to an OD standard curve generated using known antigen concentrations in order to determine its antigen concentration.
The antigen concentration determined from ELISA was then normalized to the total protein concentration of each cell lysate in order to have comparison between groups. ELISA Kits for N-Methylpurine DNA Glycosylase (MPG) and for Hypoxia Inducible Factor 1 Alpha (HIF1a) were purchased from CLOUD-CLONE CORP.(CCC) and for Human MGMT from LifeSpan Biosciences, Inc.
On the technique in general: An ELISA detects its analyte on a solid surface through an enzyme-linked reagent.

The next experiment concerns rat F98 gliomas. Description: Microarray analysis of OKN-007-treated vs untreated rat F98 gliomas. The experiment is classed as in vivo. The protocol:
Mice and Treatments. Animal studies were conducted in accordance to the OMRF IACUC (Institutional Animal Care and Use Committee) policies, which follow NIH guidelines. For the F98 rat glioma cell implantation model, F98 cells (10^5 in 10-μ1 volume) were intracerebrally implanted with a stereotaxic device (2 mm lateral and 2 mm anterior to the bregma, and at a 3 mm depth) in a total of 15 Fischer 344 rats (male 200-250 gm). The animals were divided into two groups once tumors reached 10-20 mm^3 in volume (as determined by MRI): OKN-007 treated (n=8) and untreated (UT) (n=7) groups. Rats were treated until tumors reached 200-250 mm^3 in volume or for a total of 4-6 weeks. For the G55 GBM cell implantation model, two-month-old male nude mice (Hsd:Athymic Nude-Foxnlnu mice; Harlan Inc., Indianapolis, IN) were implanted intracerebrally with human G55 xenograft cells (1×10^6) per mL suspended in 4 μL in cell culture media of 1% agarose solution. Once tumors reached 10-15 mm^3 (determined via MRI), mice were either treated daily with OKN-007 in the drinking water (150 mg/kg; 0.20% w/v for a 20 g mouse), or every 3 days with TMZ (30 mg/kg). OKN-007 was dissolved in water and made fresh every 2 days. Water bottles were weighed, and the amount of OKN-007 consumed per mouse was determined. […] The average intake of OKN-007 was approximately 140-150 mg/kg/day/mouse. TMZ was dissolved in 5% DMSO and 5% solutol-15 in sterile saline and administered via gavage. Mice were treated until the tumors reached 100-150 mm^3 or for a total of 4-6 weeks. All groups were stratified to ensure that tumor sizes were similar before initiation of treatment.
RNA isolation and preparation. For the rat F98 glioma study, all rats were euthanized after the last MRI examination. The brain of each animal was removed, and snap frozen in liquid nitrogen, before storage in a −80° C. freezer. Total RNA from all tumor tissues from all treatment groups was purified with an RNeasy Mini Kit (Qiagen), and quantified by spectrophotometry (Nanodrop). cDNA was synthesized using SuperScript IV Reverse Transcriptase Kit (Invitrogen).
Microarray analysis. The Illumina TotalPrepTM RNA Amplification Kit was used for labeling cRNA (Ambion, Austin, Tex.), as previously described (Griffins et al., 2009). Four×four treated/untreated samples were profiled using Affymetrix RaGene-1_0-st-v1 microarrays. Exon-level-summarized measures were quantile-normalized and tested for differential expression using Significance Analysis of Microarrays (SAM, [PMID: 11309499]) at a false discovery rate (FDR) <40% and […]. Functional enrichment analysis was performed using Ingenuity Pathways Analysis (IPA) (Ingenuity® Systems, world-wide-web at ingenuity.com).

In a further experiment the test system is HIF-1α. Description: RT-PCR gene-fold changes in human GBM cells. Format: cell-based. The protocol:
Quantification of mRNA by real-time quantitative RT-PCR for HIF-1a, MPG and MGMT. Total RNA from all cell lines with all treatments was purified with an RNeasy Mini Kit (Qiagen), and quantified by spectrophotometry (Nanodrop). cDNA was synthesized using SuperScript IV Reverse Transcriptase Kit (Invitrogen).
Target gene mRNA was amplified and measured by Bio-Rad CFX96™ Real Time System. Gene expression was determined using the SYBR Select Master Mix (Applied Biosystems). […] The reaction is characterized by the point during cycling when amplification of PCR products is first detected, rather than the amount of PCR product accumulated after a fixed number of cycles. The higher the starting quantity of the template, the earlier a significant increase in fluorescence is observed. The threshold cycle is defined as the fractional cycle number at which fluorescence passes a fixed threshold above the baseline. Fluorescence data were converted into cycle threshold measurements exported to Microsoft Excel. Glyceraldehyde-3-phosphatase dehydrogenase (GAPDH) mRNA expression levels were used as the quantitative internal control. For precise quantification, the mRNA expression level of each sample was normalized using the expression of the GAPDH gene.
All primers were synthesized by Integrated DNA Technologies. The primers used were: […]

[2] abbreviates: microarray, F98 gliomas, OKN treatment vs UT.

Where only a bound is given, the exact number is not on record here.

For the compound `CC(C)(C)[N+]([O-])=Cc1ccc(S(=O)(=O)O)cc1S(=O)(=O)O` [OKN-007, 2,4-disulfonyl phenyl tert-butyl nitrone], the “reduction of cell viabilities, 1 mM OKN compared to the 2 mM concentration” value in experiment [1] (LN229, U138, G55 cells) is reported as “just as effective”. Besides, the “reduction of cell viabilities, 2 mM OKN compared to the 1 mM concentration” value in experiment [1] (U251, T98, LN18 cells) is listed as “slightly more effective”. The “ELISA protein level MPG” value with MPG (G55 cells, UT 1.15) is listed as 1.41 ng/mg cell lysate; with MPG (LN18 cells, UT 2.18), 2.38 ng/mg cell lysate; in the experiment on MPG (LN229 cells, UT 2.34) it was 1.88 ng/mg cell lysate; in the experiment with MPG (T98 cells, UT 3.04) it was 3.61 ng/mg cell lysate; in the experiment on MPG (U138 cells, UT 1.30), 1.22 ng/mg cell lysate; in the experiment with MPG (U251 cells, UT 2.70), 2.77 ng/mg cell lysate. Moreover, the “number of down-regulated genes with TGFβ1 as master (upstream) regulator” value in the experiment with rat F98 gliomas (Upstream Regulator Analysis, IPA, rat F98 treated gliomas vs untreated tumors) is 57 genes. The TGFβ1 downregulation with rat F98 gliomas (microarray, F98 gliomas treated with OKN-007 vs UT) is recorded as approximately 2 fold. In addition, the “number of genes upregulated” value in the experiment on rat F98 gliomas (setting [2]) is reported as 3 genes. Also, the “number of genes with at least one exon significantly downregulated” value with rat F98 gliomas (setting [2]) was 384 genes. In addition, the “decrease in gene expression for LBP” value in the experiment with rat F98 gliomas (microarray, rat F98 glioma model, treated vs untreated tumors) is recorded as more than 2 fold. The “RT-PCR gene-fold change HIF-1α” value was determined as 1.20 fold in the experiment with HIF-1α (G55 cells (TMZ-resistant), UT 1.00); 1.35 fold in the experiment on HIF-1α (LN18 cells (TMZ-resistant), UT 1.03); 1.09 fold in the experiment with HIF-1α (LN229 cells (TMZ-sensitive), UT 1.00); 0.58 fold with HIF-1α (T98 cells (TMZ-resistant), UT 1.00); 2.93 fold with HIF-1α (U138 cells (TMZ-resistant), UT 1.00); 1.59 fold with HIF-1α (U251 cells (TMZ-sensitive), UT 1.00).

The values are drawn from patent US11660280B2, “Treatment of drug resistant gliomas” (OKLAHOMA MEDICAL RESEARCH FOUNDATION, priority 2017, dated 2023).
